According to the NIST ThermoML archive (doi:10.1021/je901085t):
Numbers after ± are expanded uncertainties.

Key:
[1] = wn = mass fraction of the nth substance listed; conditions: Capillary rise
[2] = Capillary rise

CC(F)F [1,1-difluoroethane] + CCC
surface tension liquid-gas ([1]; 248.15 K, w2 = 0.3497): 14.65 ± 0.21 mN/m
surface tension liquid-gas ([1]; 248.24 K, w2 = 0.2008): 15.35 ± 0.21 mN/m
surface tension liquid-gas ([1]; 248.37 K, w2 = 0.4922): 13.88 ± 0.21 mN/m
surface tension liquid-gas ([1]; 253.14 K, w2 = 0.3497): 13.96 ± 0.21 mN/m
surface tension liquid-gas ([1]; 253.15 K, w2 = 0.4922): 13.25 ± 0.21 mN/m
surface tension liquid-gas ([1]; 253.19 K, w2 = 0.2008): 14.7 ± 0.21 mN/m
surface tension liquid-gas ([1]; 258.1 K, w2 = 0.3497): 13.22 ± 0.21 mN/m
surface tension liquid-gas ([1]; 258.1 K, w2 = 0.4922): 12.55 ± 0.21 mN/m
surface tension liquid-gas ([1]; 258.15 K, w2 = 0.2008): 14.02 ± 0.21 mN/m
surface tension liquid-gas ([1]; 263.1 K, w2 = 0.3497): 12.43 ± 0.21 mN/m
surface tension liquid-gas ([1]; 263.18 K, w2 = 0.4922): 11.93 ± 0.21 mN/m
surface tension liquid-gas ([1]; 263.19 K, w2 = 0.2008): 13.32 ± 0.21 mN/m
surface tension liquid-gas ([1]; 268.13 K, w2 = 0.3497): 11.85 ± 0.21 mN/m
surface tension liquid-gas ([1]; 268.16 K, w2 = 0.4922): 11.19 ± 0.21 mN/m
surface tension liquid-gas ([1]; 268.19 K, w2 = 0.2008): 12.72 ± 0.21 mN/m
surface tension liquid-gas ([1]; 273.08 K, w2 = 0.4922): 10.49 ± 0.2 mN/m
surface tension liquid-gas ([1]; 273.15 K, w2 = 0.3497): 11.2 ± 0.21 mN/m
surface tension liquid-gas ([1]; 273.19 K, w2 = 0.2008): 12.04 ± 0.21 mN/m
surface tension liquid-gas ([1]; 278.16 K, w2 = 0.3497): 10.31 ± 0.2 mN/m
surface tension liquid-gas ([1]; 278.18 K, w2 = 0.2008): 11.35 ± 0.21 mN/m
surface tension liquid-gas ([1]; 278.18 K, w2 = 0.4922): 9.895 ± 0.2 mN/m
surface tension liquid-gas ([1]; 283.16 K, w2 = 0.2008): 10.48 ± 0.2 mN/m
surface tension liquid-gas ([1]; 283.16 K, w2 = 0.3497): 9.754 ± 0.2 mN/m
surface tension liquid-gas ([1]; 283.18 K, w2 = 0.4922): 9.111 ± 0.2 mN/m
surface tension liquid-gas ([1]; 288.15 K, w2 = 0.3497): 9.186 ± 0.2 mN/m
surface tension liquid-gas ([1]; 288.17 K, w2 = 0.4922): 8.51 ± 0.2 mN/m
surface tension liquid-gas ([1]; 288.18 K, w2 = 0.2008): 9.752 ± 0.2 mN/m
surface tension liquid-gas ([1]; 293.13 K, w2 = 0.3497): 8.519 ± 0.2 mN/m
surface tension liquid-gas ([1]; 293.16 K, w2 = 0.2008): 9.136 ± 0.2 mN/m
surface tension liquid-gas ([1]; 293.16 K, w2 = 0.4922): 7.919 ± 0.2 mN/m
surface tension liquid-gas ([1]; 298.1 K, w2 = 0.2008): 8.465 ± 0.2 mN/m
surface tension liquid-gas ([1]; 298.1 K, w2 = 0.3497): 7.79 ± 0.2 mN/m
surface tension liquid-gas ([1]; 298.15 K, w2 = 0.4922): 7.255 ± 0.2 mN/m
surface tension liquid-gas ([1]; 303.15 K, w2 = 0.3497): 6.986 ± 0.2 mN/m
surface tension liquid-gas ([1]; 303.18 K, w2 = 0.2008): 7.708 ± 0.2 mN/m
surface tension liquid-gas ([1]; 303.2 K, w2 = 0.4922): 6.616 ± 0.2 mN/m
surface tension liquid-gas ([1]; 308.11 K, w2 = 0.2008): 7.125 ± 0.2 mN/m
surface tension liquid-gas ([1]; 308.11 K, w2 = 0.3497): 6.317 ± 0.2 mN/m
surface tension liquid-gas ([1]; 308.46 K, w2 = 0.4922): 5.985 ± 0.2 mN/m
surface tension liquid-gas ([1]; 313.16 K, w2 = 0.4922): 5.421 ± 0.2 mN/m
surface tension liquid-gas ([1]; 313.18 K, w2 = 0.3497): 5.675 ± 0.2 mN/m
surface tension liquid-gas ([1]; 313.19 K, w2 = 0.2008): 6.518 ± 0.2 mN/m
surface tension liquid-gas ([1]; 318.13 K, w2 = 0.3497): 5.133 ± 0.2 mN/m
surface tension liquid-gas ([1]; 318.14 K, w2 = 0.2008): 5.897 ± 0.2 mN/m
surface tension liquid-gas ([1]; 318.14 K, w2 = 0.4922): 4.913 ± 0.2 mN/m
surface tension liquid-gas ([1]; 323.16 K, w2 = 0.3497): 4.602 ± 0.2 mN/m
surface tension liquid-gas ([1]; 323.17 K, w2 = 0.4922): 4.269 ± 0.2 mN/m
surface tension liquid-gas ([1]; 323.18 K, w2 = 0.2008): 5.202 ± 0.2 mN/m
surface tension liquid-gas ([1]; 328.12 K, w2 = 0.2008): 4.614 ± 0.2 mN/m
surface tension liquid-gas ([1]; 328.12 K, w2 = 0.3497): 3.958 ± 0.2 mN/m
surface tension liquid-gas ([1]; 328.15 K, w2 = 0.4922): 3.789 ± 0.2 mN/m

CCC [propane]
surface tension liquid-gas ([2]; 283.16 K): 8.811 ± 0.2 mN/m
surface tension liquid-gas ([2]; 288.17 K): 8.134 ± 0.2 mN/m
surface tension liquid-gas ([2]; 293.13 K): 7.568 ± 0.2 mN/m
surface tension liquid-gas ([2]; 298.1 K): 6.915 ± 0.2 mN/m
surface tension liquid-gas ([2]; 303.12 K): 6.349 ± 0.2 mN/m
